Here are results for eleven compounds from ChEMBL document CHEMBL4017494, “Structural Basis of Wee Kinases Functionality and Inactivation by Diverse Small Molecule Inhibitors” (J Med Chem, 2017).

As usually defined, the IC50 is the point on the concentration scale where inhibition reaches its midpoint. High values mean weaker potency in that assay, low ones greater potency in that assay. Broadly, the ΔTm is the change in melting temperature against a reference sample. Usually Kd stands for the constant that tells how readily two partners part at equilibrium.

Data set [1] concerns the target T1, Wee1-like protein kinase (Homo sapiens, UniProt P30291). Kind of data set: Inhibition of Wee1 in HEK293T cells assessed as decrease in CDK1 phosphorylation at Tyr15 at 0.01 to 10 uM after 6 hrs by Western blot method. It is filed as cell-based.
Target sequence in this assay (P30291 whole entry): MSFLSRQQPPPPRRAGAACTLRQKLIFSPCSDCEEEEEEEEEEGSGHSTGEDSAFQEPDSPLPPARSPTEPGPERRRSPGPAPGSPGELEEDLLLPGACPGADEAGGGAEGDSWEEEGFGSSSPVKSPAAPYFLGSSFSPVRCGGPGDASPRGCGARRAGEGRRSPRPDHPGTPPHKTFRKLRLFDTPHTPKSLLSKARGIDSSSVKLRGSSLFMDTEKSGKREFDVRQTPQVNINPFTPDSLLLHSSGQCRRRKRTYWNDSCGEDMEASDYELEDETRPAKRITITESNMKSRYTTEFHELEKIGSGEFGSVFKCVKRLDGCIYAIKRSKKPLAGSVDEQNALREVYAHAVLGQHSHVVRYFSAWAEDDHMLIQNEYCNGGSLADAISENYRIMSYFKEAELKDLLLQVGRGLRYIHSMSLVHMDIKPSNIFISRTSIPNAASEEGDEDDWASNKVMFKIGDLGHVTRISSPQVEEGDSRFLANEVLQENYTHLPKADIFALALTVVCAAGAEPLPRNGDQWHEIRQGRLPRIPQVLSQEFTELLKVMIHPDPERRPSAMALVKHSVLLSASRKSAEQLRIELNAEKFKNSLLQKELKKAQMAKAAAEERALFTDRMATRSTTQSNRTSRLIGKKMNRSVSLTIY
Data set [2] addresses T1, Wee1-like protein kinase. The settings on record: at 0.1 to 10 µM.
Target sequence in this assay (P30291 whole entry, looked up): as the sequence (P30291 whole entry) above
The subject of another data set is MM1.S. Briefly: Antiproliferative activity against human MM1S cells measured after 72 hrs by CellTiter-Blue assay. It is filed as functional, cell-based.
The subject of another data set is HEK-293T. Kind of data set: Antiproliferative activity against HEK293T cells measured after 72 hrs by CellTiter-Blue assay. Conditions: Homo sapiens. It is filed as cell-based.
In the next data set the test system is MDA-MB-231. Kind of data set: Antiproliferative activity against human MDA-MB-231 cells measured after 72 hrs by CellTiter-Blue assay. It is filed as functional, cell-based. The settings on record: MDA-MB-231, 72 h. For orientation: The colour change of resazurin is a common sign of viable cells or microbes.
In data set [3] the target is T1, Wee1-like protein kinase. Briefly: Inhibition of Wee1 in HEK293T cells assessed as decrease in CDK1 phosphorylation at Tyr15 at 0.1 to 10 uM after 6 hrs by Western blot method. It is filed as cell-based.
Target sequence in this assay (P30291 whole entry): as above
Data set [4] addresses T2, Wee1-like protein kinase 2 (Homo sapiens, UniProt P0C1S8).
Target sequence in this assay (P0C1S8 whole entry, looked up): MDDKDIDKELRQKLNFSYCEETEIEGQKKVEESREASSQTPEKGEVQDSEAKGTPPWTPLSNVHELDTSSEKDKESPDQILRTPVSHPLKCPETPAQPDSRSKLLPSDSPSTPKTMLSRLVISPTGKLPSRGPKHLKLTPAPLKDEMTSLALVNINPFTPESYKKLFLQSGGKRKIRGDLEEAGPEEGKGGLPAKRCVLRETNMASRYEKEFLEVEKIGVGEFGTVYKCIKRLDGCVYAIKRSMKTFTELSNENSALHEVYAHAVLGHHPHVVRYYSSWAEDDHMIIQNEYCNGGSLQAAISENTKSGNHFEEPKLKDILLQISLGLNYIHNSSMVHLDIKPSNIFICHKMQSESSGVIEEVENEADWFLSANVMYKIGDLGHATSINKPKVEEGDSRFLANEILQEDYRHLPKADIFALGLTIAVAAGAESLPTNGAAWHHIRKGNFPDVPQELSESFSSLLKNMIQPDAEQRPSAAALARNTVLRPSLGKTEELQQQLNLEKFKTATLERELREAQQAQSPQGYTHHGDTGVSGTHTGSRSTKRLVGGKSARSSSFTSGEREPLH
Data set [5] deals with T3, Membrane-associated tyrosine- and threonine-specific cdc2-inhibitory kinase (Homo sapiens) (UniProt Q99640).
T3 sequence (whole entry): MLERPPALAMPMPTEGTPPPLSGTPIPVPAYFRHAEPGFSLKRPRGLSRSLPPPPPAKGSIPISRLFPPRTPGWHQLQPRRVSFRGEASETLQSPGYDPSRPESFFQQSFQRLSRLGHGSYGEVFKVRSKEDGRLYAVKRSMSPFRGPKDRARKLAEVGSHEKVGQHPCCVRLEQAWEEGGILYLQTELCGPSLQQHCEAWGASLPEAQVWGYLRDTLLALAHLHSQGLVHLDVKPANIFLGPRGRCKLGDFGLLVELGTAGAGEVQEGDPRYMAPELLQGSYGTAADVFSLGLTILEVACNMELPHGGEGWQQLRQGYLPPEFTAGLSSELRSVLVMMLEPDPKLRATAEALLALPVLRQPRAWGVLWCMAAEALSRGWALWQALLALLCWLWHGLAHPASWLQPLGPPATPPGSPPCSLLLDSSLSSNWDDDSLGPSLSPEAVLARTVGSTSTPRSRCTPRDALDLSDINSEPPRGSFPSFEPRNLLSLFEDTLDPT

Data set [6] has as its target T1, Wee1-like protein kinase.
Target sequence in this assay (P30291 whole entry, looked up): as the sequence (P30291 whole entry) above
Data set [7] deals with T1, Wee1-like protein kinase. Briefly: Binding affinity to recombinant human N-terminal His6-tagged Wee1 kinase domain (291 to 575 residues) expressed in Escherichia coli BL21 (DE3) by isothermal titration calorimetry.
Target sequence in this assay (P30291 whole entry): as above
The target of data set [8] is T2, Wee1-like protein kinase 2. Briefly: Binding affinity to recombinant human N-terminal His6-tagged Wee2 kinase domain (202 to 492 residues) expressed in Escherichia coli BL21 (DE3) by isothermal titration calorimetry. On the technique in general: Isothermal titration calorimetry measures the heat released or taken up as one component is titrated into another.
Target sequence in this assay (P0C1S8 whole entry): as the sequence (P0C1S8 whole entry, looked up) above
Data set [9] deals with T4, Membrane-associated tyrosine- and threonine-specific cdc2-inhibitory kinase (Homo sapiens, UniProt Q99640).
T4 sequence (Q99640 whole entry): T3 sequence (whole entry)
Briefly: Binding affinity to recombinant human N-terminal His6-tagged Myt1 kinase domain (75 to 361 residues) by isothermal titration calorimetry.

Data set [10] has as its target T1, Wee1-like protein kinase. Conditions: 0.1 to 10 uM.
Target sequence in this assay (P30291 whole entry, looked up): as the sequence (P30291 whole entry) above
Data set [11] in a line: Binding affinity to human FLT3 D835V-mutant assessed as dissociation constant by quantitative real-time PCR method.
In data set [12] the target is T2, Wee1-like protein kinase 2. Briefly: Binding affinity to recombinant human full-length N-terminal His8-tagged Wee2 (1 to 567 residues) expressed in human Expi293F cells assessed as dessociation constant by quantitative real-time PCR method. It counts as cell-based. A general note: Real-time PCR tracks product formation cycle by cycle.
Target sequence in this assay (P0C1S8 whole entry): as the sequence (P0C1S8 whole entry, looked up) above
Data set [13] addresses T5, Serine/threonine-protein kinase PLK1 (Homo sapiens, UniProt P53350).
For data set [14], the target named is T5, Serine/threonine-protein kinase PLK1. Conditions: 0.1 to 10 uM.

Active and inactive are the calls of the source. No cut-off for these calls is given here.

T5 sequence (P53350 whole entry): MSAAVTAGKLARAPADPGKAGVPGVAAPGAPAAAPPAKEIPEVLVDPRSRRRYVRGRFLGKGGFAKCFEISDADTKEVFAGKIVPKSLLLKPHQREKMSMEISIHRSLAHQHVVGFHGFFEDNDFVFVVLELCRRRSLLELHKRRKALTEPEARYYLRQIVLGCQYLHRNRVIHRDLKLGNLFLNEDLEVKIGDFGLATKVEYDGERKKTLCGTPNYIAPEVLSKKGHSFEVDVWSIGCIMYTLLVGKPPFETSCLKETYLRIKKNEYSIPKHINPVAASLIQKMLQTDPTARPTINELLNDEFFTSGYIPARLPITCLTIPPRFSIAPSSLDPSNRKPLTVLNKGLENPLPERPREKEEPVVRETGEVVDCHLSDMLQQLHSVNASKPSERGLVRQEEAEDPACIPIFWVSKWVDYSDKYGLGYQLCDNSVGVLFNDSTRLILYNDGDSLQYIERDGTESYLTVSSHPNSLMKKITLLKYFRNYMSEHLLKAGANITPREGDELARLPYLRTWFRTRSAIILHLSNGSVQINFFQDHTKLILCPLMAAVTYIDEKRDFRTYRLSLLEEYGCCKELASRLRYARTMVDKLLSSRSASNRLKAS

Turning to `C[C@@H](Oc1cc(-n2cnc3ccc(CN4CCN(C)CC4)cc32)sc1C(N)=O)c1ccccc1C(F)(F)F` [GSK-461364], the “inhibition (INH)” value at Wee1-like protein kinase [1] is given as “Not Active”. In addition, the inhibition result on Wee1-like protein kinase [2] is “inactive”. Besides, the IC50 in the data set on MM1.S, in the data set on HEK-293T and with MDA-MB-231 was 1 to 3.5 nM each time.

`CC[C@@H]1C(=O)N(C)c2cnc(Nc3ccc(C(=O)NC4CCN(C)CC4)cc3OC)nc2N1C1CCCC1` [BI-2536]: the “inhibition (INH)” value at Wee1-like protein kinase [3] is “Not Active”.

For `CN1CCN(CCOc2cc(OC3CCOCC3)c3c(Nc4c(Cl)ccc5c4OCO5)ncnc3c2)CC1` [SARACATINIB], the thermal shift (ΔTm) was 0.65 °C in data set [4], 2.1 °C in data set [5] and 1.2 °C at Wee1-like protein kinase [6]. The Kd result (at Wee1-like protein kinase [7]; in [8]) was “Not Active” in each case.

In the case of `CC(=O)NCC(=O)N1[C@@H]2CC[C@H]1c1ccc(Nc3ncc(C(F)(F)F)c(NC4CCC4)n3)cc12` (single isomer, unassigned) [PF-03814735], the ΔTm in [4] is 8.5 °C; in data set [5], -0.1 °C; on Wee1-like protein kinase [6] it was 7.9 °C. Moreover, the Kd is 78.7 nM on Wee1-like protein kinase [7] (read-out: Kd), 128 nM in data set [8] (read-out: Kd) and “Not Active” in data set [9].

As to `COc1cc(Nc2c(C#N)cnc3cc(OCCCN4CCN(C)CC4)c(OC)cc23)c(Cl)cc1Cl`, the ΔTm in data set [5] was 3.9 °C.

Consider `COc1cc2c(Nc3cc(Cl)c(OC)c(Cl)c3)c(C#N)cnc2cc1OCCCN1CCN(C)CC1`, for which the ΔTm in data set [4] came to 12.3 °C; in data set [5], 3 °C; at Wee1-like protein kinase [6], 10 °C. Moreover, the results for the IC50 in the data set with MM1.S, with HEK-293T and in the data set with MDA-MB-231 were 3900 nM, 1600 nM and 1800 nM, respectively. Besides, the Kd in [8] (read-out: Kd) is 4.7 nM; in data set [9] (read-out: Kd), 444 nM.

In the case of `CNC(=O)c1nn(C)c2c1C(C)(C)Cc1cnc(Nc3ccc(N4CCN(C)CC4)cc3)nc1-2` [MILCICLIB], the results for the ΔTm (in [4]; in data set [5]; at Wee1-like protein kinase [6]) were 11.5 °C, 3.6 °C and 13.4 °C, respectively. Further, the inhibition result at Wee1-like protein kinase [10] and on Wee1-like protein kinase [2] was “Dose-dependent effect” each time. In addition, the Kd at Wee1-like protein kinase [7] (read-out: Kd) was found to be 13.6 nM; in [8] (read-out: Kd) it was 26.6 nM; in [9] (read-out: Kd), 990 nM.

Regarding `CCOc1cc2ncc(C#N)c(Nc3ccc(F)c(Cl)c3)c2cc1NC(=O)/C=C/CN(C)C` [PELITINIB], the ΔTm came out at 5.6 °C in data set [4] and 2.4 °C in data set [5]. Further, the figures for the Kd in data set [8] (read-out: Kd) and in [9] (read-out: Kd) were 498 nM and 1100 nM, respectively.

As to `Cc1nc(Nc2ncc(C(=O)Nc3c(C)cccc3Cl)s2)cc(N2CCN(CCO)CC2)n1`, the ΔTm in data set [4] turned out to be 9.2 °C.

With `CCN(CC)CCOc1ccc(Nc2ncc3cc(-c4c(Cl)cccc4Cl)c(=O)n(C)c3n2)cc1` [PD-0166285], the results for the IC50 in the data set on MM1.S, with HEK-293T and in the data set with MDA-MB-231 were 520 nM, 290 nM and 160 nM, respectively. Besides, the Kd in data set [8] (read-out: Kd) came to 5 nM; in [9] (read-out: Kd), 247 nM.

As to `C=CCn1c(=O)c2cnc(Nc3ccc(N4CCN(C)CC4)cc3)nc2n1-c1cccc(C(C)(C)O)n1` [ADAVOSERTIB], the ΔTm in data set [4] is 11.6 °C; in data set [5], 3.3 °C; on Wee1-like protein kinase [6], 15.4 °C. Also, the Kd amounted to 7.5 nM in data set [11], 3.9 nM in data set [12], 3 nM in data set [13] and 27 nM in [8] (read-out: Kd). The “inhibition (INH)” value on Wee1-like protein kinase [3] is “Active”. For the same compound, the inhibition result (on Wee1-like protein kinase [2]; in data set [14]) was “Active” each time. Besides, the figures for the IC50 in the data set with MM1.S, in the data set on HEK-293T and in the data set with MDA-MB-231 were 310 nM, 290 nM and 260 nM, respectively.
